Experimental data taken from ChEMBL document CHEMBL6114972, “Proteolysis targeting chimera of BI-2536 induces potent dual degradation of PLK1 and BET proteins” (Bioorg Med Chem, 2025).
The source made the active and inactive calls. No cut-off for these calls is given here.

Experiments:
[1] = test system: K562; test: Cytotoxicity against human K562 cells assessed as reduction in cell viability measured after 3 days by CCK-8 assay; type: functional, cell-based; details: K562, 72 h
[2] = test system: HeLa; test: Cytotoxicity against human HeLa cells assessed as reduction in cell viability measured after 3 days by CCK-8 assay; type: functional, cell-based; details: 72 h
[3] = test system: MDA-MB-231; test: Cytotoxicity against human MDA-MB-231 cells assessed as reduction in cell viability measured after 3 days by CCK-8 assay; type: functional, cell-based; details: MDA-MB-231, 72 h
[4] = test system: CWR22R; test: Cytotoxicity against human 22Rv1 cells assessed as reduction in cell viability measured after 3 days by CCK-8 assay; type: functional, cell-based; details: 22Rv1, 72 h
[5] = biological target: von Hippel-Lindau disease tumor suppressor/Serine/threonine-protein kinase PLK1 (Homo sapiens) (UniProt P53350+P40337); test: Protac activity at VHL/PLK1 in human HeLa cells assessed as PLK1 degradation at 500 nM measured after 12 hrs by Western blot analysis; type: cell-based
[6] = biological target: von Hippel-Lindau disease tumor suppressor/Bromodomain-containing protein 4 (Homo sapiens) (UniProt O60885+P40337); test: Protac activity at VHL/BRD4 in human HeLa cells assessed as BRD4 degradation at 500 nM measured after 12 hrs by Western blot analysis; type: cell-based
[7] = biological target: T1, Protein cereblon/Bromodomain-containing protein 4 (Homo sapiens, UniProt O60885+Q96SW2); test: Protac activity at CRBN/BRD4 in human HeLa cells assessed as BRD4 degradation at 500 nM measured after 12 hrs by Western blot analysis; type: cell-based
[8] = biological target: T2, Protein cereblon/Serine/threonine-protein kinase PLK1 (Homo sapiens, UniProt P53350+Q96SW2); test: Protac activity at CRBN/PLK1 in human HeLa cells assessed as PLK1 degradation at 500 nM measured after 12 hrs by Western blot analysis; type: cell-based
[9] = biological target: T1, Protein cereblon/Bromodomain-containing protein 4; test: Protac activity at CRBN/BRD4 in human HeLa cells assessed as BRD4 degradation at 20 nM measured after 24 hrs by Western blot analysis; type: cell-based
[10] = test system: HeLa; test: Induction of degradation of PLK1 in human HeLa cells at 500 nM measured after 12 hrs by Western blot analysis; type: cell-based
[11] = test system: HeLa; test: Induction of degradation of BRD4 in human HeLa cells at 500 nM measured after 12 hrs by Western blot analysis; type: cell-based
[12] = biological target: T2, Protein cereblon/Serine/threonine-protein kinase PLK1; test: Protac activity at CRBN/PLK1 in human 22Rv1 cells assessed as PLK1 degradation at 10 nM measured after 36 hrs by Western blot analysis; type: cell-based
[13] = biological target: T2, Protein cereblon/Serine/threonine-protein kinase PLK1; test: Protac activity at CRBN/PLK1 in human 22Rv1 cells assessed as PLK1 degradation at 5 to 10 nM measured after 36 hrs by Western blot analysis; type: cell-based; details: dose 5-10 nM

T2 sequence (P53350 2-603 limits assumed): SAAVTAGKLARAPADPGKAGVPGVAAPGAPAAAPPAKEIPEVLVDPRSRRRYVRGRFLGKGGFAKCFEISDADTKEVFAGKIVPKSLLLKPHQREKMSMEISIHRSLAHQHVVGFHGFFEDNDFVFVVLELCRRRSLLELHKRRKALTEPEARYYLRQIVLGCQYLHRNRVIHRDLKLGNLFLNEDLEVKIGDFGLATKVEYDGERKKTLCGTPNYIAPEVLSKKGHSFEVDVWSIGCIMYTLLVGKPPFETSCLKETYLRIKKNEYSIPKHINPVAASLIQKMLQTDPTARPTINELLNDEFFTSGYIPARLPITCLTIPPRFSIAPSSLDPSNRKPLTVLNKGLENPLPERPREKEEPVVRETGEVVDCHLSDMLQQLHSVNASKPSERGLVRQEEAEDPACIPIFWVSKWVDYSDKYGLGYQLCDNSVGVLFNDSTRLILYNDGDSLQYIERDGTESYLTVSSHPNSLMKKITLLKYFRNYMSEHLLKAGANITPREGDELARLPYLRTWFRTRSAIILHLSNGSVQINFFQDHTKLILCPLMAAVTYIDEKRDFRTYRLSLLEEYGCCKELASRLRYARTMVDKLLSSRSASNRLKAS
T2 sequence (Q96SW2 whole entry partner): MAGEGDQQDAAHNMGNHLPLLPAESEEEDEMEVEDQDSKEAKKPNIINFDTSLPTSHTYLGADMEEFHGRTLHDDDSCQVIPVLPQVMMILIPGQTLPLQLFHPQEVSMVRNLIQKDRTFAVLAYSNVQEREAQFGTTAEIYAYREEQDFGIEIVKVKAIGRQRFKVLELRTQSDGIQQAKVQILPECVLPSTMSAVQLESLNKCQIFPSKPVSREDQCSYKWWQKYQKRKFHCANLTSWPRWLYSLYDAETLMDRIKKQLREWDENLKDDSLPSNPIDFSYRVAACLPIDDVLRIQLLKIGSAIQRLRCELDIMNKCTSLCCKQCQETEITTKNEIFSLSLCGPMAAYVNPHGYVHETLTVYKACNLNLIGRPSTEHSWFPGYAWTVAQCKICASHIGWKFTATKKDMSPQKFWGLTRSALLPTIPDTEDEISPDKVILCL
T1 sequence (Q96SW2 whole entry, looked up, other chains not shown): as the sequence (Q96SW2 whole entry partner) above
Sequence of von Hippel-Lindau disease tumor suppressor/Serine/threonine-protein kinase PLK1 (Homo sapiens) (P40337 whole entry, looked up): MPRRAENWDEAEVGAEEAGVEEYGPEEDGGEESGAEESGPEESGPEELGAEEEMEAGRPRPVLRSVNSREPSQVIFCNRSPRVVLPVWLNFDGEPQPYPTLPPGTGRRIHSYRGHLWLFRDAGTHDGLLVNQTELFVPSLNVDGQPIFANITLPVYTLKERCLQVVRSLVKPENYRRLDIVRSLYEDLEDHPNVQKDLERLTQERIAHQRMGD
Sequence of von Hippel-Lindau disease tumor suppressor/Serine/threonine-protein kinase PLK1 (Homo sapiens) (P53350 whole entry, looked up): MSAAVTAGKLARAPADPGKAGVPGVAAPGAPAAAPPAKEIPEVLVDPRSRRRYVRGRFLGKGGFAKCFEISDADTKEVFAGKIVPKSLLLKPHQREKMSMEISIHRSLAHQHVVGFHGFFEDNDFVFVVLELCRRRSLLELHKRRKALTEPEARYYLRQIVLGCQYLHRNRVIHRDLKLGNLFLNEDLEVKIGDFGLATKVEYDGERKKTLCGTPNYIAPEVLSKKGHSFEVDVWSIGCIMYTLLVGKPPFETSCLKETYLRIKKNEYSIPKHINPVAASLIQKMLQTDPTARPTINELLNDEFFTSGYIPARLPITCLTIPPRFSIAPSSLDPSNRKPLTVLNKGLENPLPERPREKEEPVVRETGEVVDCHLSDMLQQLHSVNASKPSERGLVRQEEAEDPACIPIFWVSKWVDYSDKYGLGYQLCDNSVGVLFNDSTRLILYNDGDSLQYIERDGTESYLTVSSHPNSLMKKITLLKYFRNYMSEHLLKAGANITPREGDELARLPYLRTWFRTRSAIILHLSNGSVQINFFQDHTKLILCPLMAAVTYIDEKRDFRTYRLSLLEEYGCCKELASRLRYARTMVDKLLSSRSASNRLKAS
Sequence of von Hippel-Lindau disease tumor suppressor/Bromodomain-containing protein 4 (Homo sapiens) (P40337 whole entry, looked up, other chains not shown): as the sequence (P40337 whole entry, looked up) above

Compound	Activity [5]	Activity [6]	Activity [7]	Activity [8]	Activity [9]	Activity [12]	Activity [13]	IC50 [1]	IC50 [2]	IC50 [3]	IC50 [4]	Activity [10]	Activity [11]
CC[C@@H]1C(=O)N(C)c2cnc(Nc3ccc(C(=O)NC4CCN(CCCCCCC(=O)Nc5cccc6c5C(=O)N(C5CCC(=O)NC5=O)C6=O)CC4)cc3OC)nc2N1C1CCCC1 (some centres not stated)	–	–	94%	18%	Active	–	–	0.089 µM	0.054 µM	0.489 µM	0.048 µM	–	–
CC[C@@H]1C(=O)N(C)c2cnc(Nc3ccc(C(=O)NC4CCN(C)CC4)cc3OC)nc2N1C1CCCC1	–	–	–	–	–	–	–	–	–	–	–	0%	0%
Cc1ncsc1-c1ccc(CNC(=O)[C@@H]2C[C@@H](O)CN2C(=O)[C@@H](NC(=O)CCCCCCCCCCNC(=O)c2cc3c(cc2CS(C)(=O)=O)-c2cn(C)c(=O)c4[nH]cc(c24)CN3c2ncc(F)cc2F)C(C)(C)C)cc1	–	–	–	–	–	inactive	–	–	–	–	–	–	–
Cc1ncsc1-c1ccc([C@H](C)NC(=O)[C@@H]2C[C@@H](O)CN2C(=O)[C@@H](NC(=O)COCCCOCCNC(=O)C[C@@H]2N=C(c3ccc(Cl)cc3)c3c(sc(C)c3C)-n3c(C)nnc32)C(C)(C)C)cc1	–	–	–	–	–	–	inactive	–	–	–	–	–	–

Continued, in another order:

Activity [5]	Activity [6]	Activity [7]	Activity [8]	Activity [9]	Activity [12]	Activity [13]	Compound	IC50 [1]	IC50 [2]	IC50 [3]	IC50 [4]	Activity [10]	Activity [11]
0.3%	7%	–	–	–	–	–	CC[C@@H]1C(=O)N(C)c2cnc(Nc3ccc(C(=O)NC4CCN(CCCCCC(=O)N[C@H](C(=O)N5C[C@H](O)C[C@H]5C(=O)NCc5ccc(-c6scnc6C)cc5)C(C)(C)C)CC4)cc3OC)nc2N1C1CCCC1	> 1 µM	0.398 µM	> 1 µM	> 1 µM	–	–
8%	50%	–	–	–	–	–	CC[C@@H]1C(=O)N(C)c2cnc(Nc3ccc(C(=O)NC4CCN(CCCCCCCCCC(=O)N[C@H](C(=O)N5C[C@H](O)C[C@H]5C(=O)NCc5ccc(-c6scnc6C)cc5)C(C)(C)C)CC4)cc3OC)nc2N1C1CCCC1	0.066 µM	0.052 µM	0.928 µM	0.225 µM	–	–
6%	22%	–	–	–	–	–	CC[C@@H]1C(=O)N(C)c2cnc(Nc3ccc(C(=O)NC4CCN(CCCCCCCC(=O)N[C@H](C(=O)N5C[C@H](O)C[C@H]5C(=O)NCc5ccc(-c6scnc6C)cc5)C(C)(C)C)CC4)cc3OC)nc2N1C1CCCC1	0.527 µM	0.158 µM	> 1 µM	> 1 µM	–	–
–	–	93%	7%	Active	–	–	CC[C@@H]1C(=O)N(C)c2cnc(Nc3ccc(C(=O)NC4CCN(CCCCCCCCCC(=O)Nc5cccc6c5C(=O)N(C5CCC(=O)NC5=O)C6=O)CC4)cc3OC)nc2N1C1CCCC1 (some centres not stated)	0.133 µM	0.125 µM	0.527 µM	0.063 µM	–	–
0%	10%	–	–	–	–	–	CC[C@@H]1C(=O)N(C)c2cnc(Nc3ccc(C(=O)NC4CCN(CCCCCCC(=O)N[C@H](C(=O)N5C[C@H](O)C[C@H]5C(=O)NCc5ccc(-c6scnc6C)cc5)C(C)(C)C)CC4)cc3OC)nc2N1C1CCCC1	> 1 µM	0.193 µM	> 1 µM	> 1 µM	–	–
